Legend:
primary cortical neurons [1] = test: Western blot of primary cortical neurons; format: cell-based, ICR mice; settings: Aβ1-42 oligomers alone
Protocol: (§1) Lysates were centrifuged at 13,000 rpm for 20 min at 4° C., and the protein content in the supernatant was determined using the Bradford assay (Bio-rad, Hercules, Calif.). For subcellular fractionation, cells were lysed with lysis buffer (250 mM Sucrose, 20 mM HEPES, pH 7.4, 10 mM KCl, 1.5 mM MgCl2, 1 mM EGTA, 1 mM EDTA, 1 mM DTT) containing protease inhibitor for 30 min on ice, followed by centrifugation at 720 g for 5 min at 4° C. Supernatants were centrifuged at 15,000 rpm for 10 min at 4° C., and the resulting supernatant was used as the cytosol fraction. After centrifugation at 720 g for 5 min, pellets were washed with lysis buffer and dissolved in nuclear lysis buffer (50 mM Tris HCl, pH 8.0, 150 mM NaCl, 1% NP40, 0.5% sodium deoxycholate, 0.1% SDS, 10% glycerol) as the nuclear fraction. Protein from each sample was subjected to 8%˜15% SDS-PAGE, and the resolved proteins were transferred to nitrocellulose or polyvinylidene fluoride membrane. The membranes were blocked with 5% nonfat milk powder in Tris-buffered saline/Tween 20 (TBST) for 1 h at room temperature, then incubated with anti-phospho-ERK (Cell signaling), anti-ERK (Cell signaling), anti-LAMP1 (Abcam), anti-LC3 (Cell signaling), anti-cathepsin B (Cell signaling), anti-p62 (Cell signaling), anti-p62 (5114, Cell signaling), anti-phospho-mTOR (5536, Cell signaling), anti-mTOR (2983, Cell signaling), anti-phospho-ULK1 (14202, Cell signaling), anti-ULK1 (8054, Cell signaling), anti-TFEB (852501, Biolegend), and anti-GAPDH (Cell signaling) overnight at 4° C.

primary cortical neurons [2] = test: Dendritic spine formation in primary cortical neurons; format: cell-based, ICR mice; settings: Aβ1-42 oligomer alone
Protocol: Cell culture: SH-SY5Y neuroblastoma cells were cultured at 37° C., 5% CO2., in Dulbecco's Modified Eagle Medium/Ham's F-12 nutrient mixture (DMEM/F12) (Invitrogen, Carlsbad, Calif.) supplemented with 10% heat-inactivated fetal bovine serum containing 100 units/ml penicillin, 100 μg/ml streptomycin. Primary cortical neuron cultures were derived from embryo day 18 (E18) from ICR mice. The dissociated cells were plated on glass cover slips coated with poly-D-lysine in Neurobasal medium supplemented with 2% B27 (Invitrogen), 100 units/ml penicillin, 100 μg/ml streptomycin, and 2 mM L-glutamine. Primary NSCs from normal mice were isolated from the subventricular zone (SVZ) of 8 week-old C57BL/6 mice brain. NSCs from adult Tg2576 mice brain were obtained from Seoul National University Hospital. The neurospheres were cultured as previously described (M. Y. Kim, B. S. Moon, K. Y. Choi, Isolation and maintenance of cortical neural progenitor cells in vitro. Methods Mol Biol 1018, 3-10 (2013)). For neurosphere culture from normal mice, the cells were dissociated from brain tissue and grown in N2 medium in 25 cm^2 flasks (SPL, Gyeonggi-do, Korea) in suspension. bFGF (20 ng/ml, Peprotech, Princeton, N.J.) and human EGF (20 ng/ml, Peprotech) were added to the media to allow the cells to form neurospheres. For analyses, NSCs were cultured as a monolayer. For differentiation of NSCs, the neurospheres were dissociated with TrypLE (Invitrogen), plated on 15 μg/ml poly-L-ornithine-(Sigma-Aldrich, St. Louis, Mo.) and 10 μg/ml fibronectin (Gibco)-coated plates, and cultured in bFGF- and EGF-depleted N2 medium for 2 days. For neurosphere culture from Tg2576 mice, the cells were grown in DMEM/F12 supplemented with B27 supplements in 75 cm^2 flasks (SPL) in suspension. bFGF (10 ng/ml) and human EGF (10 ng/ml) were added to the media to allow the cells to form neurospheres. […]

SH-SY5Y cells = test: Western blot of SH-SY5Y cell lysates; format: cell-based; settings: co-treatment with trametinib, in the presence of Aβ1-42 oligomers
Protocol: Cell culture: SH-SY5Y neuroblastoma cells were cultured at 37° C., 5% CO2., in Dulbecco's Modified Eagle Medium/Ham's F-12 nutrient mixture (DMEM/F12) (Invitrogen, Carlsbad, Calif.) supplemented with 10% heat-inactivated fetal bovine serum containing 100 units/ml penicillin, 100 μg/ml streptomycin. Primary cortical neuron cultures were derived from embryo day 18 (E18) from ICR mice. The dissociated cells were plated on glass cover slips coated with poly-D-lysine in Neurobasal medium supplemented with 2% B27 (Invitrogen), 100 units/ml penicillin, 100 μg/ml streptomycin, and 2 mM L-glutamine. Primary NSCs from normal mice were isolated from the subventricular zone (SVZ) of 8 week-old C57BL/6 mice brain. NSCs from adult Tg2576 mice brain were obtained from Seoul National University Hospital. The neurospheres were cultured as previously described (M. Y. Kim, B. S. Moon, K. Y. Choi, Isolation and maintenance of cortical neural progenitor cells in vitro. Methods Mol Biol 1018, 3-10 (2013)). For neurosphere culture from normal mice, the cells were dissociated from brain tissue and grown in N2 medium in 25 cm^2 flasks (SPL, Gyeonggi-do, Korea) in suspension. bFGF (20 ng/ml, Peprotech, Princeton, N.J.) and human EGF (20 ng/ml, Peprotech) were added to the media to allow the cells to form neurospheres. For analyses, NSCs were cultured as a monolayer. For differentiation of NSCs, the neurospheres were dissociated with TrypLE (Invitrogen), plated on 15 μg/ml poly-L-ornithine-(Sigma-Aldrich, St. Louis, Mo.) and 10 μg/ml fibronectin (Gibco)-coated plates, and cultured in bFGF- and EGF-depleted N2 medium for 2 days. For neurosphere culture from Tg2576 mice, the cells were grown in DMEM/F12 supplemented with B27 supplements in 75 cm^2 flasks (SPL) in suspension. bFGF (10 ng/ml) and human EGF (10 ng/ml) were added to the media to allow the cells to form neurospheres. For inducing differentiation and AP expression, the neurospheres were dissociated with pipetting, plated on 15 μg/ml poly-L-ornithine- and 10 μg/ml fibronectin (Gibco)-coated plates, and cultured in bFGF- and EGF-depleted medium for 2 days.
as §1

Compound	decrease of mature cathepsin B level compared to non-treated neurons (CTL) (primary cortical neurons [1]) [%]	decrease in number of dendritic spines compared to vehicle treated group (CTL) (primary cortical neurons [2]) [%]	effect of trametinib on increasing mature cathepsin B and decreasing p62 (SH-SY5Y cells)
Aβ1-42 oligomers: cytotoxic oligomers of Aβ1-42 used to induce neurotoxic conditions	26	24	
CO/C1=C\C(C)=C\[C@@H](C)[C@@H](O)[C@@H](C)C/C(C)=C/C=C/[C@H](OC)[C@@H]([C@@H](C)[C@@H](O)[C@H](C)[C@@]2(O)C[C@@H](O)[C@H](C)[C@@H](C(C)C)O2)OC1=O [bafilomycin A1]			eliminated the effect of trametinib
